These results are taken from the NIST ThermoML archive (doi:10.1016/j.jct.2016.08.016).

± gives the expanded uncertainty stated by the source.

For the series the following is noted: Crystal; visual observation.

Take `CC1=C(NCc2ccccc2)C(=O)c2ccccc2C1=O` [2-(benzylamino)-3-methylnaphthalene-1,4-dione]: the Normal melting temperature is 91.7 ± 2.6 °C.
As to `CC1=C(NCCc2ccccc2)C(=O)c2ccccc2C1=O` [3-(phenethylamino)-2-methylnaphthalene-1,4-dione], the Normal melting temperature turned out to be 92.6 ± 1.6 °C.
